Measured values from publication PMC8058344, “ARIH1 signaling promotes anti-tumor immunity by targeting PD-L1 for proteasomal degradation” (Nature Communications, 2021).

System: PD-L1 in H1975 cells
Experiment: PD-L1 levels in H1975 cells by immunoblotting and flow cytometry
Format: cell-based, human
Conditions: H1975 cells, 10 μM ES-072 for 12 h
Protocol: Fig. 1 EGFR inhibitors were screened to reduce membrane PD-L1 levels. a High-throughput screening of 2125 FDA-approved drugs or drug candidates. U937 cells were incubated with IFNγ (100 ng/mL) for 48 h, treated with the drugs at 10 μM for 12 h. Ruxolitinib (Rux) was used as a positive control. The hit compounds that induced the decrease of PD-L1 levels are shown in blue. The depth of blue represents decreased level of PD-L1. The heatmap represents the targeted pathways obtained from the high-throughput screening, based upon decreased membrane PD-L1 level detected by flow cytometry. b Immunoblotting of PD-L1 in U937 cells treated with ES-072 (ES) or AZD9291 (AZD) at indicated concentrations for 12 h. ES and AZD are EGFR inhibitors. c, d Median fluorescence intensity (MFI) (c) and relative quantification (d) of PD-L1 in U937 cells treated with 10 μM ES-072 or 10 μM AZD9291 for 12 h. Data represent means ± SEM, n = 18, 6 independent repeats, ****P < 0.0001. e–g Immunoblotting (e, f) and flow cytometry (g) analysis of PD-L1 levels in U937 cells treated with 10 μM ES-072 or 10 μM AZD9291 for the indicated times. h, i Immunoblottings (h) of PD-L1 and β-TrCP, relative quantification (i) of PD-L1 MFI in H1975 cells transfected with non-targeting siRNA (si-CTRL) or β-TrCP siRNAs (si-β-TrCP) and treated with or without 10 μM ES-072/AZD9291 for 12 h. Data represent means ± SEM, n = 9, 3 independent repeats, NS: no significant; ****P < 0.0001. j–l Immunoblotting (j) and flow cytometry analysis (k) with relative quantification (l) of PD-L1 in H1975 cells treated with 10 μM ES-072 or AZD9291, and/or 5 μM LY2090314 (LY) for 12 h. […]
Fig. 5 GSK3α-mediated phosphorylation of PD-L1 promotes PD-L1-ARIH1 interaction and ARIH1-induced degradation. a Co-IP analysis for the interaction of K48-ubiquitin, ARIH1 (HA), and PD-L1 in HEK293T cells transfected with HA-ARIH1 and Flag-PD-L1 (WT, S279A, S283A, or 2SA), treated with MG132 (10 μM) for 6 h; HA-tagged empty vector (HA-EV) was transfected as a negative control. b Co-IP analysis for the interaction of ARIH1 and PD-L1 in HEK293T cells transfected with HA-ARIH1 and Flag-PD-L1 (WT or 2SA), treated with 10 μM ES-072 for 24 h, Flag-tagged empty vector (Flag-EV) was transfected as a negative control. c HEK293T cells were transfected with Flag-PD-L1. Co-IP analysis for the interaction of ubiquitin and PD-L1 in HEK293T cells transfected with ARIH1-siRNAs or HA-GSK3α and treated with MG132 (10 μM) for 6 h; non-targeting siRNA (si-CTRL) was transfected as a negative control. d Immunoblots of PD-L1 and ARIH1 (HA) in H1975 cells transfected with HA-ARIH1, treated with or without 5 μM LY for 6 h. e, f MFI (e) and relative quantification (f) of PD-L1 in HA-ARIH1-overexpressed H1975 cells, treated with or without 5 μM LY for 6 h. […]

In the case of C=CC(=O)Nc1cccc(Nc2nc(Nc3ccc(N4CCN(C)CC4)nc3OC)ncc2C(F)(F)F)c1 [ES-072], the “PD-L1 level in whole cell lysate (WCL) and outer membrane protein (OMP)” value is reported as “decreased”.
